Test results: publication PMC10105399 (European Journal of Medicinal Chemistry, 2023)
pIC50: −log10 of the molar value.

Tests used:
alpha-chymotrypsin = type: biochemical, human; settings: read-out: IC50 Chymo-trypsin
SARS-CoV-2 3CLpro = SARS-CoV-2 3CLpro (Severe acute respiratory syndrome coronavirus 2, UniProt P0DTD1); type: biochemical
MERS-CoV 3CLpro = MERS-CoV 3CLpro (Middle East respiratory syndrome-related coronavirus, UniProt K9N7C7); type: biochemical
Sequence of MERS-CoV 3CLpro (K9N7C7 3248-3553 limits assumed): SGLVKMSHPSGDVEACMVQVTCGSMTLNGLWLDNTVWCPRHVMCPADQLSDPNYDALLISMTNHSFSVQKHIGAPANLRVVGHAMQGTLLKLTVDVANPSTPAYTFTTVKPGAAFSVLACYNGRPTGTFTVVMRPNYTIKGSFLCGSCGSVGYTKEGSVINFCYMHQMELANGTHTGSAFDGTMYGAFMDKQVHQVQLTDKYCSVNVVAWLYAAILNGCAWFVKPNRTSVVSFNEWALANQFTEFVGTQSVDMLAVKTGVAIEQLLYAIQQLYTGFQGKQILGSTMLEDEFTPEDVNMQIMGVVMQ

Row | Compound | pIC50 (alpha-chymotrypsin) | further results
1 | CC(C)C[C@H](NC(=O)OCC(C)(C)Oc1cccc(Cl)c1)C(=O)N[C@H](C=O)C[C@@H]1CCNC1=O [13c, 2-(3-Chlorophenoxy)-2-methylpropyl ((S)-4-methyl-1-oxo-1-(((S)-1-oxo-3-((S)-2-oxopyrrolidin-3-yl)propan-2-yl)amino)pentan-2-yl)carbamate] | < 4.30 | 
2 | [2H]C([2H])(OC(=O)N[C@@H](CC(C)C)C(=O)N[C@H](C=O)C[C@@H]1CCNC1=O)C(C)(C)Sc1ccccc1 [2c, 2-Methyl-2-(phenylthio)propyl-1,1-d2 ((S)-4-methyl-1-oxo-1-(((S)-1-oxo-3-((S)-2-oxopyrrolidin-3-yl)propan-2-yl)amino)pentan-2-yl)carbamate] | < 4.30 | 
3 | [2H]C([2H])(OC(=O)N[C@@H](CC(C)C)C(=O)N[C@H](C=O)C[C@@H]1CCNC1=O)C(C)(C)Oc1ccc(Cl)cc1 [12c, 2-(4-Chlorophenoxy)-2-methylpropyl-1,1-d2 ((S)-4-methyl-1-oxo-1-(((S)-1-oxo-3-((S)-2-oxopyrrolidin-3-yl)propan-2-yl)amino)pentan-2-yl)carbamate] | < 4.30 | 
4 | CC(C)C[C@H](NC(=O)OCC(C)(C)Sc1ccccc1)C(=O)N[C@H](C#N)C[C@@H]1CCNC1=O [1g, 2-Methyl-2-(phenylthio)propyl ((S)-1-(((S)-1-cyano-2-((S)-2-oxopyrrolidin-3-yl)ethyl)amino)-4-methyl-1-oxopentan-2-yl)carbamate] | < 4.30 | 
5 | CC(C)C[C@H](NC(=O)OCC(C)(C)Oc1ccc(F)cc1)C(=O)N[C@H](C=O)C[C@@H]1CCNC1=O [15c, 2-(4-Fluorophenoxy)-2-methylpropyl ((S)-4-methyl-1-oxo-1-(((S)-1-oxo-3-((S)-2-oxopyrrolidin-3-yl)propan-2-yl)amino)pentan-2-yl)carbamate] | < 4.30 | 
6 | CC(C)C[C@H](NC(=O)OCC(C)(C)Sc1nc2ccccc2[nH]1)C(=O)N[C@H](C=O)C[C@@H]1CCNC1=O [9c, 2-((1H-benzo[d]imidazole-2-yl)thio)-2-methylpropyl ((S)-4-methyl-1-oxo-1-(((S)-1-oxo-3-((S)-2-oxopyrrolidin-3-yl)propan-2-yl)amino)pentan-2-yl)carbamate] |  | fold less active than 1c against SARS-CoV-2 3CLpro (SARS-CoV-2 3CLpro): more than 4 fold; fold reduction in potency relative to 1c against MERS-CoV 3CLpro (MERS-CoV 3CLpro): 1.5 fold
7 | CC(C)C[C@H](NC(=O)OCC(C)(C)Sc1cccc(Cl)c1)C(=O)N[C@H](C=O)C[C@@H]1CCNC1=O [7c, 2-((3-Chlorophenyl)thio)-2-methylpropyl ((S)-4-methyl-1-oxo-1-(((S)-1-oxo-3-((S)-2-oxopyrrolidin-3-yl)propan-2-yl)amino)pentan-2-yl)carbamate] | < 4.30 | 
8 | CC(C)C[C@H](NC(=O)OCC(C)(C)Oc1ccccc1)C(=O)N[C@H](C=O)C[C@@H]1CCNC1=O [10c, 2-Methyl-2-phenoxypropyl ((S)-4-methyl-1-oxo-1-(((S)-1-oxo-3-((S)-2-oxopyrrolidin-3-yl)propan-2-yl)amino)pentan-2-yl)carbamate] |  | fold less active than 1c against SARS-CoV-2 3CLpro (SARS-CoV-2 3CLpro): more than 4 fold; fold more potent than 1c against MERS-CoV 3CLpro (MERS-CoV 3CLpro): 2 fold
9 | CC(C)C[C@H](NC(=O)OCC(C)(C)Sc1ccccc1)C(=O)N[C@H](C=O)C[C@@H]1CCNC1=O [1c, 2-Methyl-2-(phenylthio)propyl ((S)-4-methyl-1-oxo-1-(((S)-1-oxo-3-((S)-2-oxopyrrolidin-3-yl)propan-2-yl)amino)pentan-2-yl)carbamate] | < 4.30 | fold higher potency than 8c against SARS-CoV-2 3CLpro (SARS-CoV-2 3CLpro): 4.6 fold; fold higher potency than 8c against MERS-CoV 3CLpro (MERS-CoV 3CLpro): ~2 fold
10 | CC(C)C[C@H](NC(=O)OCC(C)(C)Sc1ccccc1)C(=O)N[C@@H](C[C@@H]1CCNC1=O)C(=O)C(=O)NC1CC1 [1e, 2-Methyl-2-(phenylthio)propyl ((S)-1-(((S)-4-(cyclopropylamino)-3,4-dioxo-1-((S)-2-oxopyrrolidin-3-yl)butan-2-yl)amino)-4-methyl-1-oxopentan-2-yl)carbamate] | < 4.30 | 
